Results: article PMC10778198, “First-in-Human Dose-Escalation Study of the Novel Oral Depsipeptide Class I-Targeting HDAC Inhibitor Bocodepsin (OKI-179) in Patients with Advanced Solid Tumors” (Cancers, 2023)

Tested on: patients with advanced solid tumors
Assay: phase I dose escalation: safety, DLT, MTD, RP2D (CTCAE v. 5)
Assay type: in vivo
Conditions: 4:3
From the text: Subsequent dosing cohorts were enrolled using a standard 3 + 3 design.
If any patient in any cohort of three patients developed a DLT during cycle 1, an additional three patients were recruited to expand the cohort to up to six evaluable patients. If two or more patients in any expanded cohort developed a DLT, this dose was considered non-tolerated, and dose escalation was discontinued. The MTD was defined as the highest dose level for which no more than one of six patients experienced a DLT.
Patients were continuously evaluated for adverse events throughout the study using the Common Terminology Criteria of Adverse Events (CTCAE v. 5). The patients underwent a clinical history and physical examination, an ECOG PS, a complete blood count (CBCs), chemistry, coagulation studies, urinalysis, a serum pregnancy test (as applicable), a triplicate ECG, an ophthalmology examination, and baseline tumor assessment at screening. During cycle 1, weekly history and physical examination, CBC, chemistry, coagulation parameters, urinalysis, and triplicate ECGs were performed; in subsequent cycles, weekly labs were limited to a CBC. Repeat ophthalmology examinations were performed at cycle 3, day 1, and at the end of treatment. Repeat tumor assessment was performed every 2 cycles (6 weeks) in accordance with RECIST 1.1.

Q: For `CC(C)[C@H](N)C(=O)SCC/C=C/[C@@H]1CC(=O)NCc2nc(cs2)C(=O)NC(C)(C)C(=O)N[C@@H](C(C)C)C(=O)O1` [OKI-179, Bocodepsin], which “TEAE: Anemia” value (30 mg–210 mg (n = 8), G1) is on record?
A: 0 n (%)

Q: What about the “TEAE: Back pain” value (30 mg–210 mg (n = 8), G1) of the same compound?
A: 1 (13) n (%)

Q: And the “TEAE: Cough” value (30 mg–210 mg (n = 8), G1)?
A: 2 (25) n (%)

Q: And the “TEAE: Decreased appetite” value (30 mg–210 mg (n = 8), G1)?
A: 3 (38) n (%)

Q: What about the “TEAE: Diarrhea” value (30 mg–210 mg (n = 8), G1) of the same compound?
A: 5 (63) n (%)

Q: What about the “TEAE: Dyspnea” value (30 mg–210 mg (n = 8), G1) of the same compound?
A: 2 (25) n (%)

Q: What about the “TEAE: ECG QT prolonged” value (30 mg–210 mg (n = 8), G1) of the same compound?
A: 0 n (%)

Q: What about the “TEAE: Fatigue” value (30 mg–210 mg (n = 8), G1) of the same compound?
A: 2 (25) n (%)

Q: What about the “TEAE: Headache” value (30 mg–210 mg (n = 8), G1) of the same compound?
A: 2 (25) n (%)

Q: And the “TEAE: Hypokalaemia” value (30 mg–210 mg (n = 8), G1)?
A: 1 (13) n (%)

Q: What about the “TEAE: Muscular weakness” value (30 mg–210 mg (n = 8), G1) of the same compound?
A: 0 n (%)

Q: What about the “TEAE: Nasal congestion” value (30 mg–210 mg (n = 8), G1) of the same compound?
A: 1 (13) n (%)

Q: What about the “TEAE: Nausea” value (30 mg–210 mg (n = 8), G1) of the same compound?
A: 5 (63) n (%)

Q: What about the “TEAE: Platelet count decreased” value (30 mg–210 mg (n = 8), G1) of the same compound?
A: 0 n (%)

Q: And the “TEAE: Proteinuria” value (30 mg–210 mg (n = 8), G1)?
A: 0 n (%)

Q: What about the “TEAE: Pyrexia” value (30 mg–210 mg (n = 8), G1) of the same compound?
A: 2 (25) n (%)

Q: And the “TEAE: Vomiting” value (30 mg–210 mg (n = 8), G1)?
A: 4 (50) n (%)

Q: What about the “TEAE: Weight decreased” value (30 mg–210 mg (n = 8), G1) of the same compound?
A: 1 (13) n (%)

Q: And the “TEAE: Anemia” value (30 mg–210 mg (n = 8), G2)?
A: 2 (25) n (%)

Q: And the “TEAE: Back pain” value (30 mg–210 mg (n = 8), G2)?
A: 0 n (%)

Q: What about the “TEAE: Cough” value (30 mg–210 mg (n = 8), G2) of the same compound?
A: 1 (13) n (%)

Q: And the “TEAE: Decreased appetite” value (30 mg–210 mg (n = 8), G2)?
A: 1 (13) n (%)

Q: What about the “TEAE: Diarrhea” value (30 mg–210 mg (n = 8), G2) of the same compound?
A: 0 n (%)

Q: What about the “TEAE: Dyspnea” value (30 mg–210 mg (n = 8), G2) of the same compound?
A: 0 n (%)

Q: What about the “TEAE: ECG QT prolonged” value (30 mg–210 mg (n = 8), G2) of the same compound?
A: 0 n (%)

Q: And the “TEAE: Fatigue” value (30 mg–210 mg (n = 8), G2)?
A: 1 (13) n (%)

Q: What about the “TEAE: Headache” value (30 mg–210 mg (n = 8), G2) of the same compound?
A: 0 n (%)

Q: And the “TEAE: Hypokalaemia” value (30 mg–210 mg (n = 8), G2)?
A: 0 n (%)

Q: What about the “TEAE: Muscular weakness” value (30 mg–210 mg (n = 8), G2) of the same compound?
A: 1 (13) n (%)

Q: What about the “TEAE: Nausea” value (30 mg–210 mg (n = 8), G2) of the same compound?
A: 0 n (%)

Q: What about the “TEAE: Platelet count decreased” value (30 mg–210 mg (n = 8), G2) of the same compound?
A: 0 n (%)

Q: And the “TEAE: Proteinuria” value (30 mg–210 mg (n = 8), G2)?
A: 0 n (%)

Q: And the “TEAE: Pyrexia” value (30 mg–210 mg (n = 8), G2)?
A: 0 n (%)

Q: What about the “TEAE: Vomiting” value (30 mg–210 mg (n = 8), G2) of the same compound?
A: 0 n (%)

Q: And the “TEAE: Weight decreased” value (30 mg–210 mg (n = 8), G2)?
A: 1 (13) n (%)

Q: And the “TEAE: Anemia” value (30 mg–210 mg (n = 8), G3)?
A: 2 (25) n (%)

Q: What about the “TEAE: Back pain” value (30 mg–210 mg (n = 8), G3) of the same compound?
A: 0 n (%)

Q: And the “TEAE: Cough” value (30 mg–210 mg (n = 8), G3)?
A: 0 n (%)

Q: What about the “TEAE: Decreased appetite” value (30 mg–210 mg (n = 8), G3) of the same compound?
A: 0 n (%)

Q: And the “TEAE: Diarrhea” value (30 mg–210 mg (n = 8), G3)?
A: 0 n (%)

Q: What about the “TEAE: Dyspnea” value (30 mg–210 mg (n = 8), G3) of the same compound?
A: 0 n (%)

Q: And the “TEAE: ECG QT prolonged” value (30 mg–210 mg (n = 8), G3)?
A: 1 (13) n (%)

Q: What about the “TEAE: Fatigue” value (30 mg–210 mg (n = 8), G3) of the same compound?
A: 1 (13) n (%)

Q: What about the “TEAE: Headache” value (30 mg–210 mg (n = 8), G3) of the same compound?
A: 0 n (%)

Q: What about the “TEAE: Hypokalaemia” value (30 mg–210 mg (n = 8), G3) of the same compound?
A: 0 n (%)

Q: And the “TEAE: Muscular weakness” value (30 mg–210 mg (n = 8), G3)?
A: 0 n (%)

Q: And the “TEAE: Nausea” value (30 mg–210 mg (n = 8), G3)?
A: 0 n (%)

Q: What about the “TEAE: Platelet count decreased” value (30 mg–210 mg (n = 8), G3) of the same compound?
A: 0 n (%)

Q: And the “TEAE: Proteinuria” value (30 mg–210 mg (n = 8), G3)?
A: 0 n (%)

Q: And the “TEAE: Pyrexia” value (30 mg–210 mg (n = 8), G3)?
A: 0 n (%)

Q: And the “TEAE: Vomiting” value (30 mg–210 mg (n = 8), G3)?
A: 0 n (%)

Q: What about the “TEAE: Weight decreased” value (30 mg–210 mg (n = 8), G3) of the same compound?
A: 0 n (%)

Q: What about the “TEAE: Anemia” value (270 mg (n = 3), G1) of the same compound?
A: 0 n (%)

Q: And the “TEAE: Back pain” value (270 mg (n = 3), G1)?
A: 0 n (%)

Q: What about the “TEAE: Cough” value (270 mg (n = 3), G1) of the same compound?
A: 0 n (%)

Q: And the “TEAE: Decreased appetite” value (270 mg (n = 3), G1)?
A: 0 n (%)

Q: And the “TEAE: Diarrhea” value (270 mg (n = 3), G1)?
A: 0 n (%)

Q: What about the “TEAE: Dyspnea” value (270 mg (n = 3), G1) of the same compound?
A: 0 n (%)

Q: What about the “TEAE: ECG QT prolonged” value (270 mg (n = 3), G1) of the same compound?
A: 0 n (%)

Q: What about the “TEAE: Fatigue” value (270 mg (n = 3), G1) of the same compound?
A: 1 (33) n (%)

Q: What about the “TEAE: Headache” value (270 mg (n = 3), G1) of the same compound?
A: 0 n (%)

Q: And the “TEAE: Hypokalaemia” value (270 mg (n = 3), G1)?
A: 0 n (%)

Q: What about the “TEAE: Muscular weakness” value (270 mg (n = 3), G1) of the same compound?
A: 1 (33) n (%)

Q: And the “TEAE: Nausea” value (270 mg (n = 3), G1)?
A: 1 (33) n (%)

Q: And the “TEAE: Platelet count decreased” value (270 mg (n = 3), G1)?
A: 1 (33) n (%)

Q: What about the “TEAE: Proteinuria” value (270 mg (n = 3), G1) of the same compound?
A: 0 n (%)

Q: What about the “TEAE: Pyrexia” value (270 mg (n = 3), G1) of the same compound?
A: 0 n (%)

Q: What about the “TEAE: Vomiting” value (270 mg (n = 3), G1) of the same compound?
A: 0 n (%)

Q: What about the “TEAE: Weight decreased” value (270 mg (n = 3), G1) of the same compound?
A: 0 n (%)

Q: And the “TEAE: Anemia” value (270 mg (n = 3), G2)?
A: 0 n (%)

Q: What about the “TEAE: Back pain” value (270 mg (n = 3), G2) of the same compound?
A: 0 n (%)

Q: And the “TEAE: Cough” value (270 mg (n = 3), G2)?
A: 0 n (%)

Q: What about the “TEAE: Decreased appetite” value (270 mg (n = 3), G2) of the same compound?
A: 0 n (%)

Q: What about the “TEAE: Diarrhea” value (270 mg (n = 3), G2) of the same compound?
A: 0 n (%)
